The values that follow come from publication PMC6546875, “Efficacy of Antimicrobial Peptide DP7, Designed by Machine-Learning Method, Against Methicillin-Resistant Staphylococcus aureus” (Frontiers in Microbiology, 2019).

For orientation: MBC means the lowest tested concentration that kills the bacteria rather than only halting them. A high value points to less potent killing.

Test [1] concerns S. aureus ATCC 33591. The format is cell-based, Staphylococcus aureus. As to conditions: ATCC 33591, 22 h. How it is done:
(§1) The susceptibility testing methods were performed as previously described ([Wiegand et al., 2008]). […] The minimum bactericidal concentration (MBC) endpoint is the lowest concentration of antibacterial agent that kills > 99.9% of the initial bacterial population where no visible growth of bacteria was observed on nutrient agar plates. […] Subsequently, the bacterial samples were counted at different time points (0, 1, 2, 4, 6, 8, 18, and 24 h).

Test [2] concerns S. aureus ATCC 25923.
Test [3] has as its system S. aureus DP7-R. The format is cell-based, Staphylococcus aureus. As to conditions: change from 1× MIC (ATCC 25923) to n× MIC (DP7-R). The procedure: Subsequently, the bacterial samples were counted at different time points (0, 1, 2, 4, 6, 8, 18, and 24 h).
For every 48 h, we transferred 2% of each culture to new flasks containing fresh medium with a twofold higher DP7 concentration. […] Aliquots from each population were stored in 20% glycerol at -80°C.

Test [4] deals with S. aureus. The experiment in a line: In vitro time-killing assay. The test is classed as cell-based, Staphylococcus aureus. As to conditions: Figure 1; S. aureus ATCC 25923 and ATCC 33591.
Test [5] relates to S. aureus ATCC 25923. In words: microbe, parasite or virus in culture. As to conditions: Staphylococcus aureus, ATCC25923, 22 h, read-out: MIC for ATCC 25923.
In test [6] the test system is MRSA strain ATCC 33591. In words: Murine model of MRSA blood stream infection. As to conditions: 10 mg/kg i.v., 72 h, vs PBS-treated mice, n = 5. The format is in vivo, C57 female mice. The procedure: A well-characterized murine model of blood stream infection was employed to study the pharmacodynamics profiles of DP7 and compare them with those of vancomycin. Briefly, C57 female mice (body weight 17 g ± 1 g), purchased from Hua Fu Kang Biological Technology Co., Ltd (Beijing, China), were intravenously infected with 1 × 10^8 CFU/100 μL of MRSA strain ATCC 33591 in the logarithmic growth phase (recovery on defibrinated sheep blood agar, Oxoid, United Kingdom). One hour after infection, the mice were treated with various doses of DP7 (0.5, 1, and 2 mg/kg), while the mice in the control group were injected with the same volume of saline. Vancomycin at 10 mg/kg was used as the positive control. Survival and weight changes were observed every 24 h for 1 week. At 24 and 72 h, organs, including the heart, liver, spleen, lung, kidney, and blood were collected and the bacterial load was counted for each murine. At 72 h, the liver, spleen, lungs, and kidneys were fixed with 4% paraformaldehyde for 1 week, sectioned at 4 μm after processing for paraffin embedding, and then stained with hematoxylin and eosin (H&E). All animal procedures were approved and controlled by the Institutional Animal Care and Treatment Committee of Sichuan University and conducted according to the Animal Care and Use Guidelines of Sichuan University.

The test system of test [7] is S. aureus ATCC 25923. Particulars: superscript b; ref Shen et al., 2012; cited from earlier work. From the text: Table 1 MIC of various AMPs against S. aureus. | column: MIC for ATCC 25923 (mg/L) || Here, the antimicrobial peptide (AMP) DP7, a short 12 amino acid AMP with broad-spectrum antibacterial activities, was chosen to analyze its potential mechanisms for killing S. aureus.

In test [8] the test system is S. aureus ATCC 33591. Particulars: superscript b; ref Shen et al., 2012; cited from earlier work.
Test [9] concerns E. coli (ATCC 25922). The test is classed as cell-based, Escherichia coli. As to conditions: ATCC 25922, 22 h. How it is done:
as §1

In test [10] the test system is P. aeruginosa (PAO1). The test is classed as cell-based, Pseudomonas aeruginosa. Particulars: PAO1, 22 h. The procedure: as §1

Converted amounts (≈) assume the structure as drawn. “And” between values parts separate entries of the source, which are not always exact repeats. Equal entries are not always repeated. Structures can show the parent of a compound that is named as a salt. Where two headings read alike, the source gives them in different places. Marks after values point to notes of the source that are not given here. No end group written: not given here.

Regarding VQLRIRVAVIRA [HH2], the “MIC for ATCC 33591” value in test [1] is reported as 64^a mg/L. Besides, the “MIC for ATCC 25923” value in [2] (ATCC 25923, 22 h) is given as 64 mg/L.
Regarding RLARIVVIRVAR [Bac2A], in test [1], the “MIC for ATCC 33591” value was 43.7^a mg/L.
On to `CCn1cc(C(=O)O)c(=O)c2cc(F)c(N3CCNCC3)cc21` [noroxin, norfloxacin], for which the “MIC for DP7-R as multiple of the MIC for ATCC 25923” value (“MIC for DP7-R as multiple” for short) in [3] came out at 2 × MIC. Also, the “MIC use here (time-killing curves)” value in [4] was 1 µg/mL (≈ 3.13 µM). In addition, the MIC in test [5] is 1 µg/mL (≈ 3.13 µM).
As to `CC1COc2c(N3CCN(C)CC3)c(F)cc3c(=O)c(C(=O)O)cn1c23` (stereo not shown) [ofloxacin], in [3], the “MIC for DP7-R as multiple” value worked out at 2 × MIC. The MIC in [5] stood at 0.25 µg/mL (≈ 0.692 µM).
As to VQLRIRVCVIRK [DP10], the “MIC for DP7-R as multiple” value in test [3] stood at 4 × MIC. Moreover, the “MIC for ATCC 25923” value in [2] (logarithmic growth-phase bacteria, 37°C, 22 h, OD600) was 64 mg/L.
For `CN[C@H](CC(C)C)C(=O)N[C@H]1C(=O)N[C@@H](CC(N)=O)C(=O)N[C@H]2C(=O)N[C@H]3C(=O)N[C@H](C(=O)N[C@H](C(=O)O)c4cc(O)cc(O)c4-c4cc3ccc4O)[C@H](O)c3ccc(c(Cl)c3)Oc3cc2cc(c3O[C@@H]2O[C@H](CO)[C@@H](O)[C@H](O)[C@H]2O[C@H]2C[C@](C)(N)[C@H](O)[C@H](C)O2)Oc2ccc(cc2Cl)[C@H]1O` [vancomycin], the “MIC for DP7-R as multiple” value in [3] is 1 × MIC. The “MIC use here (time-killing curves)” value in test [4] was 0.25 µg/mL (≈ 0.173 µM). In addition, the “bacterial load in heart, liver, spleen, lung, kidney and blood” value in test [6] is listed as “statistically significant reductions”. Besides, the MIC in test [5] was found to be 0.25 µg/mL (≈ 0.173 µM).
Consider `CO[C@H]1/C=C/O[C@@]2(C)Oc3c(C)c(O)c4c(O)c(c(/C=N/N5CCN(C)CC5)c(O)c4c3C2=O)NC(=O)/C(C)=C\C=C\[C@H](C)[C@H](O)[C@@H](C)[C@@H](O)[C@@H](C)[C@H](OC(C)=O)[C@@H]1C` [rifampicin], for which the “MIC for DP7-R as multiple” value in test [3] came out at 1 × MIC.
For the molecule `COc1c(N2C[C@@H]3CCCN[C@@H]3C2)c(F)cc2c(=O)c(C(=O)O)cn(C3CC3)c12` [moxifloxacin hydrochloride], the “MIC for DP7-R as multiple” value in test [3] came out at 1 × MIC. Besides, the MIC in [5] is 0.125 µg/mL.
Regarding `CC[C@H]1OC(=O)[C@H](C)[C@@H](O[C@H]2C[C@@](C)(OC)[C@@H](O)[C@H](C)O2)[C@H](C)[C@@H](O[C@@H]2O[C@H](C)C[C@H](N(C)C)[C@H]2O)[C@](C)(O)C[C@@H](C)CN(C)[C@H](C)[C@@H](O)[C@]1(C)O` [azithromycin], in test [3], the “MIC for DP7-R as multiple” value came to 1 × MIC. For the same molecule, in test [5], the MIC was 0.125 µg/mL (≈ 0.167 µM).
In the case of “LLGDFFRKSKEKIGKEFKRI VQRIKDFLRNLVPRTES [LL-37, antimicrobial peptide, 37 amino acids]”, the “MIC for ATCC 25923” value in test [7] is 14 mg/L and 14^b mg/L. In addition, the “MIC for ATCC 33591” value in test [8] is recorded as 28^b mg/L.
Turning to VQWRIRVAVIRK [DP7], in [1], the minimum bactericidal concentration (MBC) is 64 µg/mL and the “MIC for ATCC 33591” value was 16^a mg/L. In test [9], this molecule had an MBC of 64 µg/mL and an MIC of 16 µg/mL. In addition, in [10], the MBC worked out at 64 µg/mL and the MIC is 16 µg/mL. Moreover, in [2] (ATCC 25923, 22 h), the MBC was 64 µg/mL and the “MIC for ATCC 25923” value is 16^a mg/L.
Consider `CNC(C)C1CCC(N)C(OC2C(N)CC(N)C(OC3OCC(C)(O)C(NC)C3O)C2O)O1` (stereo not shown) [gentamicin], for which, in [3], the “MIC for DP7-R as multiple” value is 4 × MIC. Further, in test [4], the “MIC use here (time-killing curves)” value was determined as 0.125 µg/mL (≈ 0.262 µM). Moreover, in [5], the MIC came out at 0.0625 µg/mL (≈ 0.131 µM).
VQLRIRVCVIRK [DP8]: the “MIC for DP7-R as multiple” value in test [3] came out at 4 × MIC. Also, the “MIC for ATCC 25923” value in test [2] (ATCC 25923, 22 h) stood at 16 mg/L.
